Read-outs that look alike come from different tables or passages of the source.
Assays:
[1] = tested on: Vitex extra cellular peroxidase; type: biochemical, Vitex negundo
[2] = tested on: callus cultures of Nirgundi (Vitex negundo); assay: Effect of growth regulators on callus growth and enzyme activity of callus cultures; type: cell-based; settings: MS medium, Vitex negundo leaf callus; result in words
Excerpt: Leaf tissues were taken as explants for callus initiation after being properly washed in 10% Labolene followed by surface sterilization in 0.1% Mercuric chloride under aseptic conditions and inoculated in Murashige and Skoog (MS) medium containing 3% sucrose, 0.8% agar in addition to plant growth regulators like kinetin (6-furfuryl amino purine), BAP (benzyl amino purine), 2,4-D (2,4-dichlorophenoxyacetic acid), NAA (naphthalene acetic acid), IBA (indole-3-butyric acid) alone and in different combinations and sub culturing was also done in similar hormone combinations for proliferation. When no hormone was supplied in the medium, callus growth was very slow albeit showing good peroxidase activity. […] The pH was kept at 5.8 in all the experiments. Once established, the liquid suspension was maintained by the sub-culturing of 10 ml each of 7 day culture into 100 ml of fresh media in 250 ml Erlenmeyer flasks and the CCAs were also maintained by the subsequent sub-culturing of 5 g each of the sample into fresh liquid media and the flasks were placed on a gyratory shaker at 120 rpm in the light at 25° C. Viability as well as activity was maintained even after a period of 6 months.

| Structure (SMILES) | Relative activity(%) ([1]; Reagent 1 Mm, None = 100) | Effect on Vitex peroxidase activity (inhibitor / enhancer / no change) ([1]; result in words) | further results |
| --- | --- | --- | --- |
| [Cl][Hg][Cl] [HgCl2] | 62% | Inhibitors | inhibition ([1]; HgCl2, text b118): 60% |
| O=C(O)Cc1c[nH]c2ccccc12 [IAA] | – | – | Effect on callus growth and enzyme activity [2]: reduce both the callus growth as well as enzyme activity |
| O=S(=O)([O-])[O-].[Mn+2] [MnSO4] | 131% | enhancers | – |
| [Ca+2].[Cl-].[Cl-] [CaCl2] | 103% | no change in activity | – |
| O=S(=O)([O-])[O-].[Mg+2] [MgSO4] | 97% | no change in activity | – |
| [I-].[K+] [KI] | 116% | – | – |
| c1ccc(CNc2ncnc3[nH]cnc23)cc1 [BA, benzyl amino purine] | – | – | Effect on callus growth and enzyme activity [2]: better callus growth as well as enzyme activity |
| O=S(=O)([O-])[O-].[Zn+2] [ZnSO4] | 138% | enhancers | – |
| O=C(O)CN(CCN(CC(=O)O)CC(=O)O)CC(=O)O [EDTA] | – | – | Effect on Vitex peroxidase activity (inhibitor / enhancer / no change) [1]: enhancers; Relative activity(%) [1]: 113% |
| [Cl-].[Na+] [NaCl] | – | – | Effect on Vitex peroxidase activity (inhibitor / enhancer / no change) [1]: enhancers; Relative activity(%) [1]: 110% |
| [N-]=[N+]=[N-].[Na+] [NaN3, sodium azide] | 73% | enhancers | inhibition (reduction in activity) ([1]; 0.1 ml of 1 mM sodium azide in 2.4 ml of total assay volume): 30% |
| O=C(O)COc1ccc(Cl)cc1Cl [2,4-D, 2,4-dichlorophenoxyacetic acid] | – | – | Effect on callus growth and enzyme activity [2]: reduce both the callus growth as well as enzyme activity |

— US7390641B2, “Production of peroxidase from plant cell and callus cultures” (Council of Scientific and Industrial Research, priority 2004, dated 2008)
